Assay results taken from publication PMC9067978, “Design, synthesis, and molecular docking studies of novel pomalidomide-based PROTACs as potential anti-cancer agents targeting EGFR^WT and EGFR^T790M” (Journal of Enzyme Inhibition and Medicinal Chemistry, 2022).
“Also recorded” adds a separate entry of the source.

Tests used:
[1] = target: T1, EGFR^WT (Homo sapiens, UniProt P00533); assay: EGFR^WT kinase inhibitory assay (HTRF); type: biochemical; conditions: ATP 1.65 µM, mean ± S.D of three experiments
T1 construct: purchased Sigma
T1 sequence (P00533 25-1210): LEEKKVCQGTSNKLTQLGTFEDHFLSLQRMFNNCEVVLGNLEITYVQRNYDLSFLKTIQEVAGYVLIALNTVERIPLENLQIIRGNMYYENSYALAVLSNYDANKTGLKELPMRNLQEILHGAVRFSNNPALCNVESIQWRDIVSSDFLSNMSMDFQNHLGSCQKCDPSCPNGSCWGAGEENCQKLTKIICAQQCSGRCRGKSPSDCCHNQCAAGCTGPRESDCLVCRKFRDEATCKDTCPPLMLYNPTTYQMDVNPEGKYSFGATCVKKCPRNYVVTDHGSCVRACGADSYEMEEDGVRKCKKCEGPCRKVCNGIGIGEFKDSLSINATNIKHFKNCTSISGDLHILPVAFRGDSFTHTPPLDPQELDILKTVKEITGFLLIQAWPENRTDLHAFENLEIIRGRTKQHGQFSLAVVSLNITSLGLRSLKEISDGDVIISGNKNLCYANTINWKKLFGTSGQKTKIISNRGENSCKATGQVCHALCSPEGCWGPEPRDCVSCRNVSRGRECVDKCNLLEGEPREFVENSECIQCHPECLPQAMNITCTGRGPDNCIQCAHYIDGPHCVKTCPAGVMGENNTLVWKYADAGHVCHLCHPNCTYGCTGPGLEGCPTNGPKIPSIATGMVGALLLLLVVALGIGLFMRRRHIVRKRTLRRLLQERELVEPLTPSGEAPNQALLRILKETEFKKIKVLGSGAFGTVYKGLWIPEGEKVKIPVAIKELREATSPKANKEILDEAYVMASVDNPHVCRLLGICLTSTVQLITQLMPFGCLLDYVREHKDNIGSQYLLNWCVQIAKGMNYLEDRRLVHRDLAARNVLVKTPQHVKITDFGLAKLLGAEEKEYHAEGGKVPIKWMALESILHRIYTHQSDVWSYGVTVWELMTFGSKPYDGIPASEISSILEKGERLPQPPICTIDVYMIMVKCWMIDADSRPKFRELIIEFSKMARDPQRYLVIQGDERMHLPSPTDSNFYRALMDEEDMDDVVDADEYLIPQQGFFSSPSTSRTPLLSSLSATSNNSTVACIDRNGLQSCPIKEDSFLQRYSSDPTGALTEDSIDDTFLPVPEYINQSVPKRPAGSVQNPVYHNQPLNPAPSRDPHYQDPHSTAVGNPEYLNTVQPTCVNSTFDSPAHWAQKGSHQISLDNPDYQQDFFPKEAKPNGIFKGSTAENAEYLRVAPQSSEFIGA
Protocol: (§1) This test used HTRF[44] assay with EGFR^WT and EGFR^T790M (Sigma). For the first 5 minutes, the evaluated compounds were incubated with EGFR^WT and/or EGFR^T790M and their substrates in the enzymatic buffer. […] The assay was performed at 37 °C for 30 minutes. The addition of EDTA-containing detection reagents halted the process. After one hour detection period, GraphPad Prism 5.0 was used to calculate the IC50 values. For each concentration, three separate trials were carried out.

[2] = target: T2, EGFR^T790M (Homo sapiens, UniProt P00533, T790M); assay: EGFR^T790M kinase inhibitory assay (HTRF); type: biochemical; conditions: ATP 1.65 µM, mean ± S.D of three experiments, read-out: EGFR^790M IC50
T2 construct: purchased Sigma
T2 sequence (P00533 25-1210 T790M): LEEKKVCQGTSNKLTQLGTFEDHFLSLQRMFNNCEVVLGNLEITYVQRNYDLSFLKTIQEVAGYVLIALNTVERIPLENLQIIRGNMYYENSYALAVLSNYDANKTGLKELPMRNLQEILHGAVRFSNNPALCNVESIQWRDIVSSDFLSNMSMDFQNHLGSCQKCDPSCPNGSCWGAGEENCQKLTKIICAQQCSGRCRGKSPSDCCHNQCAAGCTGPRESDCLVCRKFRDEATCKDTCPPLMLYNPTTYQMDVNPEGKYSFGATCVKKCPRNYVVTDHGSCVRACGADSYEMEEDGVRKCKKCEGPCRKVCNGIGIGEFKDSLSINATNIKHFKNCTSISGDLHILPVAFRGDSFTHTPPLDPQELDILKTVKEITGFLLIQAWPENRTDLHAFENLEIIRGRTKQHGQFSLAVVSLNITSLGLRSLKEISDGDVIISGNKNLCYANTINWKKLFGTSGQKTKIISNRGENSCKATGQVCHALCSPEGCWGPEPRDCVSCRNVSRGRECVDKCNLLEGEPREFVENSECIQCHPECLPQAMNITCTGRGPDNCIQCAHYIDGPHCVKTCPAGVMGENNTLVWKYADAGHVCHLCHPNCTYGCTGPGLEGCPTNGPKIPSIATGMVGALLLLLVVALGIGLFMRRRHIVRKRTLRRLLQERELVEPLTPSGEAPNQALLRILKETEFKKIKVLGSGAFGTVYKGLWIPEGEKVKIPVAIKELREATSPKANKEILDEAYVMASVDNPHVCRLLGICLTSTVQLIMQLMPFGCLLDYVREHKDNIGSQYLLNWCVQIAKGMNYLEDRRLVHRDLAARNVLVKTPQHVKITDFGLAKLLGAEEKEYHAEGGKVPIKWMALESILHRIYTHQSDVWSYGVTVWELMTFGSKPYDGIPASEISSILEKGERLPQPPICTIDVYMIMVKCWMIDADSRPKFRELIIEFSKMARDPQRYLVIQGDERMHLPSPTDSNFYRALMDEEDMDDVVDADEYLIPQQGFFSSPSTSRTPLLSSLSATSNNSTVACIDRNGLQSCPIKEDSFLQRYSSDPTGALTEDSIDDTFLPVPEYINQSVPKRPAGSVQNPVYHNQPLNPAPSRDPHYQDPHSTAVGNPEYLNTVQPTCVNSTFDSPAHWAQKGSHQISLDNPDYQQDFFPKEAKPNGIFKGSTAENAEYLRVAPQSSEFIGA
Protocol: as §1

[3] = target: T3, EGFR (Homo sapiens, UniProt P00533); assay: Western blotting, EGFR degradation in A549 cells; type: cell-based
T3 construct: EGFR degradation activities of compounds in A549 cells; endogenous in cells; host or cells: A549
T3 sequence (P00533 25-1210): as the sequence (P00533 25-1210) above
Protocol: Following this, the target compounds 15–21 tethering various E3 ligases ligand were chosen as representative PROTACs for further degradation study based on temporal data.
Figure 4. (A) EGFR degradation activities of compounds in A549 cells. Cells were treated for 48 h with concentration of 0.1 and 1 µM. (B) Effects of concentration-dependent EGFR degradation by compounds 15–21 in A549 cell lines. Cells were treated for 48 h with a concentration from 1 nM to 10 µM. EGFR protein was examined by Western blotting analysis and EGFR degradation rate was quantified by densitometry and normalised to the corresponding density of β-actin protein (n ¼ 3). TEXT PRINTED IN THE PICTURE: (B) Comp 15: DC50 = 43.4 nm | (B) Comp 16: DC50= 32.9 nm DOUBTS OF THE COPYIST ABOUT THIS PICTURE: Comp 15, DC50: 43.4 is small blurred print; the 3 could be 8 and the digits are not certain / Comp 16, DC50: 32.9 is small blurred print; the 3 could be 8 and the 9 could be 8 or 0
We set nine concentration gradients ranging from […] to 10 µM to determine the degradation activity of all tested compounds and calculated the DC50 (concentration that caused deletion of 50% of EGFR) values.
(§2) At a concentration of 100 nM, the time-dependent degradation activities of compounds 15–21 were also examined (Figure 5(A)).
Figure 5. (A) EGFR time-dependent degradation by compound 16 in A549 cell lines. Cells were treated with100 nM of 15–21 for indicated time points. Western blotting was used to evaluate EGFR protein, and densitometry was used to measure EGFR degradation, which was adjusted to the density of β-actin protein (n ¼2). (B) Compounds 15 and 16 have EGFR degradation and phosphorylation inhibitory action in A549 cells. The cells were exposed to concentrations of 0.1, 0.3, and 1 µM. Erlotinib were utilised for comparison. TEXT PRINTED IN THE PICTURE: (A) Comp 15: Dmax = 85 % @ 96 h; Degradation: 9 (4 h; 100 nM); Degradation: 22 (8 h; 100 nM); Degradation: 42 (12 h; 100 nM); Degradation: 83 (24 h; 100 nM); Degradation: 84 (36 h; 100 nM); Degradation: 82 (48 h; 100 nM); Degradation: 82 (72 h; 100 nM); Degradation: 85 (96 h; 100 nM) | (A) Comp 16: Dmax = 96 % @72 h; Degradation: 32 (4 h; 100 nM); Degradation: 43 (8 h; 100 nM); Degradation: 67 (12 h; 100 nM); Degradation: 69 (24 h; 100 nM); Degradation: 78 (36 h; 100 nM); Degradation: 85 (48 h; 100 nM); Degradation: 96 (72 h; 100 nM); Degradation: 94 (96 h; 100 nM) DOUBTS OF THE COPYIST ABOUT THIS PICTURE: Comp 15, Dmax: print is blurred, 85 % @ 96 h is the best reading (85 or 86) / Comp 16, Dmax: print is small and blurred, 96 % @72 h is the best reading (96 or 95; the % sign is unclear) / Comp 15, Degradation row: print is blurred, 83/84/82/82/85 are best readings (3, 5, 8 are hard to tell apart) / Comp 16, Degradation row: print is blurred, 67/69/78/85/96/94 are best readings (5, 6, 8, 9 are hard to tell apart) / The Degradation rows are printed under the blot lanes with no unit. The value 0 under the 0.1 % DMSO control lane was not assigned to any compound.
Cells were seeded in 6-well plates at 1 × 10^6 per well, incubated at 37 °C with 5% CO2 for 24 h before drug exposure. Cells were treated with different concentrations of synthesised compounds for […], then collected and suspended in lysis buffer (Beyotime) and centrifuged for 20 min at 12000 rpm, later removed the insoluble material. […] The results were detected by an enhanced chemiluminescence system (Mill-pore). […]

[4] = system: EGFR phosphorylation; assay: Western blotting, EGFR phosphorylation in A549 cells; type: cell-based, human; conditions: A549 cells, 0.1, 0.3 and 1 µM, erlotinib for comparison
Protocol: as §2
(§3) Figure 5. (A) EGFR time-dependent degradation by compound 16 in A549 cell lines. Cells were treated with100 nM of 15–21 for indicated time points. Western blotting was used to evaluate EGFR protein, and densitometry was used to measure EGFR degradation, which was adjusted to the density of β-actin protein (n ¼2). (B) Compounds 15 and 16 have EGFR degradation and phosphorylation inhibitory action in A549 cells. The cells were exposed to concentrations of 0.1, 0.3, and 1 µM. Erlotinib were utilised for comparison. […]
(§4) Cells were seeded in 6-well plates at 1 × 10^6 per well, incubated at 37 °C with 5% CO2 for 24 h before drug exposure. […] The results were detected by an enhanced chemiluminescence system (Mill-pore). […]

[5] = system: Akt phosphorylation; assay: Western blotting, Akt phosphorylation in A549 cells; type: cell-based, human; conditions: A549 cells, 0.1, 0.3 and 1 µM, erlotinib for comparison
Protocol: as §2, §3, §4

[6] = system: A549; assay: MTT anti-proliferative assay, A549; conditions: Homo sapiens, A549, read-out: IC50 A549
Protocol: (§5) The anti-proliferative activity was quantified in the following way. At a density of 3–8 × 10^3 cells per well, human cancer cell lines were introduced to 96-well plates. The wells were then incubated at 37 °C for 12 hours in 5% CO2 incubator. To determine the DMSO content, the culture media was swapped with 0.1 ml of fresh medium containing graded amounts of the test compounds for each well. Incubation time for the wells was two days. The cells were then cultured in 100 µl MTT solution (5 µg ml^−1) for another 4 hours in each well.
(§6) The absorbance of each well was measured at 490 nm with an automated ELISA reader system (TECAN, CHE) after MTT-formazan crystals were dissolved in 100 µl of DMSO. The IC50 values were calculated using nonlinear regression fitting models (Graph Pad, Prism Version 5). The results were expressed as means ± SD and were based on the average of three separate, duplicate trials.

[7] = system: MCF-7; assay: MTT anti-proliferative assay, MCF-7; conditions: Homo sapiens, MCF7, read-out: IC50 MCF-7
Protocol: as §5, §6

[8] = system: HepG-2; assay: MTT anti-proliferative assay, HepG-2; conditions: Homo sapiens, HepG2, read-out: IC50 HepG-2
Protocol: as §5, §6

[9] = system: HCT-116; assay: MTT anti-proliferative assay, HCT-116; conditions: Homo sapiens, HCT-116, read-out: IC50 HCT-116
Protocol: as §5, §6

| IC50 [1] | IC50 [2] | Dmax at 0.1 µM ([3]; A549, A549 cells, 100 nM, time course, reached at 96 h (15) and 72 h (16), read-out: Dmax, maximum EGFR degradation rate) | DC50 ([3]; A549 cells, 48 h, Western blotting densitometry, read-out: DC50 (concentration that caused deletion of 50% of EGFR)) | IC50 [6] | IC50 [7] | IC50 [9] | Compound | inhibition of EGFR phosphorylation, in words [4] | inhibition of Akt phosphorylation, in words [5] | IC50 [8] |
| --- | --- | --- | --- | --- | --- | --- | --- | --- | --- | --- |
| 0.22 ± 0.05 µM | 6.89 ± 0.31 µM | 86% | 0.0434 µM | 3.09 ± 0.15 µM | 7.87 ± 0.31 µM | 6.19 ± 0.27 µM | O=C1CCC(N2C(=O)c3cccc(NC(=O)COCCOCCn4nc5[nH]c6ccccc6nc-5c4=O)c3C2=O)C(=O)N1 (centres unmarked) [Compound 15, N-(2-(2,6-dioxopiperidin-3-yl)-1,3-dioxoisoindolin-4-yl)-2-(2-(2-(3-oxo-3,9-dihydro-2H-pyrazolo[3,4-b]quinoxalin-2-yl)ethoxy)ethoxy)acetamide] | effectively displayed inhibitory activity | effectively displayed inhibitory activity; also recorded: comparable to erlotinib | 3.89 ± 0.05 µM |
| 0.19 ± 0.09 µM | 6.26 ± 0.32 µM |  |  | 3.19 ± 0.19 µM | 7.96 ± 0.35 µM | 6.29 ± 0.35 µM | O=C1CCC(N2C(=O)c3cccc(NC(=O)COCCOCCOCCNC(=O)c4nc5ccccc5[nH]c4=O)c3C2=O)C(=O)N1 (centres unmarked) [Compound 17, N-(2-(2-(2-(2-(2-(2,6-dioxopiperidin-3-yl)-1,3-dioxoisoindolin-4-ylamino)-2-oxoethoxy)ethoxy)ethoxy)ethyl)-3-oxo-3,4-dihydroquinoxaline-2-carboxamide] |  |  | 4.09 ± 0.11 µM |
| 0.65 ± 0.03 µM | 8.16 ± 0.28 µM |  |  | 4.67 ± 0.13 µM | 8.26 ± 0.25 µM | 6.79 ± 0.27 µM | O=C1CCC(N2C(=O)c3cccc(NC(=O)COCCOCCNNC(=O)c4ccc(N=C5C(=O)Nc6ccccc65)cc4)c3C2=O)C(=O)N1 (centres unmarked) [Compound 18, N-(2-(2,6-dioxopiperidin-3-yl)-1,3-dioxoisoindolin-4-yl)-2-(2-(2-(2-(4-((2-oxoindolin-3-ylidene)amino)benzoyl)hydrazineyl)ethoxy)ethoxy)acetamide] |  |  | 6.26 ± 0.56 µM |
| 3.02 ± 0.12 µM | 14.1 ± 0.51 µM |  |  | 6.54 ± 0.32 µM | 16.3 ± 0.71 µM | 9.12 ± 0.38 µM | CN1C(=O)C(=Nc2ccc(C(=O)NNCCOCCOCC(=O)Nc3cccc4c3C(=O)N(C3CCC(=O)NC3=O)C4=O)cc2)c2ccccc21 (centres unmarked) [Compound 19, N-(2-(2,6-dioxopiperidin-3-yl)-1,3-dioxoisoindolin-4-yl)-2-(2-(2-(2-(4-(1-methyl-2-oxoindolin-3-ylideneamino)benzoyl)hydrazinyl)ethoxy)ethoxy)acetamide] |  |  | 8.26 ± 0.36 µM |
| 0.77 ± 0.05 µM | 16.3 ± 0.69 µM |  |  | 8.27 ± 0.25 µM | 14.3 ± 0.69 µM | 12.3 ± 0.71 µM | O=C(CSc1nc2ccccc2o1)NNCCOCCOCC(=O)Nc1cccc2c1C(=O)N(C1CCC(=O)NC1=O)C2=O (centres unmarked) [Compound 20, 2-(2-(2-(2-(2-(benzo[d]oxazol-2-ylthio)acetyl)hydrazinyl)ethoxy)ethoxy)-N-(2-(2,6-dioxopiperidin-3-yl)-1,3-dioxoisoindolin-4-yl)acetamide] |  |  | 9.26 ± 0.39 µM |
| 2.27 ± 0.16 µM | 15.3 ± 0.61 µM |  |  | 7.27 ± 0.16 µM | 16.3 ± 0.71 µM | 13 ± 0.52 µM | O=C(CSc1nc2ccccc2s1)NNCCOCCOCC(=O)Nc1cccc2c1C(=O)N(C1CCC(=O)NC1=O)C2=O (centres unmarked) [Compound 21, 2-(2-(2-(2-(2-(benzo[d]thiazol-2-ylthio)acetyl)hydrazinyl)ethoxy)ethoxy)-N-(2-(2,6-dioxopiperidin-3-yl)-1,3-dioxoisoindolin-4-yl)acetamide] |  |  | 9.86 ± 0.37 µM |
|  |  |  |  |  | 7.89 ± 0.55 µM | 5.52 ± 0.25 µM | COc1cccc2c1C(=O)c1c(O)c3c(c(O)c1C2=O)C[C@@](O)(C(=O)CO)C[C@@H]3O[C@H]1C[C@H](N)[C@H](O)[C@H](C)O1 [Doxorubicin, reference compound] |  |  | 6.22 ± 0.45 µM |
|  |  |  |  | 19.3 ± 1.85 µM | 21.8 ± 1.85 µM | 16.8 ± 1.65 µM | C#Cc1cccc(Nc2ncnc3cc(OCCOC)c(OCCOC)cc23)c1 [Erlotinib, reference compound] |  |  | 13.1 ± 1.28 µM |
